Laboratory results as given in patent US8586538B2, “Method of treating a patient suffering from a bleeding disorder comprising administering an antibody against the A3-C1 of FVIII” (Stichting Sanquin Bloedvoorziening, priority 2002, dated 2013).
Values joined by “and” are separate entries in the source; they are usually repeats but may differ in a detail not shown here. Identical values can stand only once. No end group written: not given here.

T1: interaction between FVIII light chain and LRP cluster II (Homo sapiens, UniProt Q07954)
T1 construct: Recombinant LRP clusters II or IV (1 pmol/well) were adsorbed onto microtiter wells; made in house; host or cells: LRP cluster II: BHK cells; FVIII light chain: plasma-derived
T1 sequence (Q07954 803-1182): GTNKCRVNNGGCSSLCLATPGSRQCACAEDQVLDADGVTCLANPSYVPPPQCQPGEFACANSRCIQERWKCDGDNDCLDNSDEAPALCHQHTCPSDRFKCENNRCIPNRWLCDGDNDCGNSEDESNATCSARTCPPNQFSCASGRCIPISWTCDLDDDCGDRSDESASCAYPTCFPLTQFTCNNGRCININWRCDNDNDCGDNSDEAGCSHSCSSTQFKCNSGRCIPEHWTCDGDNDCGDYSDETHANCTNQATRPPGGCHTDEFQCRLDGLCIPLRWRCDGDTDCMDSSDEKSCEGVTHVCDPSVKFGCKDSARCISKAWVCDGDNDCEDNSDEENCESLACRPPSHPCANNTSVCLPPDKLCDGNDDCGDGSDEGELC

T2: interaction between FVIII light chain and LRP cluster IV (Homo sapiens, UniProt P00451)
T2 construct: made in house; host or cells: LRP cluster IV: BHK cells; FVIII light chain: plasma-derived
T2 sequence (P00451 1668-2351 limits assumed): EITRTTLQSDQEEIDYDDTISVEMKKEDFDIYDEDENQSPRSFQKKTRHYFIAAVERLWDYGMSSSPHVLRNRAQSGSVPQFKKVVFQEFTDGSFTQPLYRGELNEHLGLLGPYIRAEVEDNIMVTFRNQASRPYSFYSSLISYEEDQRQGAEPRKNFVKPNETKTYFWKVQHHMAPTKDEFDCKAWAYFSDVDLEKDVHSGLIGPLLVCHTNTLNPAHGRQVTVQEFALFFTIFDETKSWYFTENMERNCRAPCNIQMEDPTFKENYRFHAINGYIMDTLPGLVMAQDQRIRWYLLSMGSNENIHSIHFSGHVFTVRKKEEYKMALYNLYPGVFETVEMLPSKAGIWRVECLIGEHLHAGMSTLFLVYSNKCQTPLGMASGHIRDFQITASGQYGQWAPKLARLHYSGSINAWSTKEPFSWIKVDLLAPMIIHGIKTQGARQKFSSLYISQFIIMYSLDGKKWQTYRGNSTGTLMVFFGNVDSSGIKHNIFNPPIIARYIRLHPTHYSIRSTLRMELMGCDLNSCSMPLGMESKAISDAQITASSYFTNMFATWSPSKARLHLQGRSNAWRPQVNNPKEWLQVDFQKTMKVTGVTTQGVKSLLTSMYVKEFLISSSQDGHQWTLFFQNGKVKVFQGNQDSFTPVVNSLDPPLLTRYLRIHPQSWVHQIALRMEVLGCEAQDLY

T3: interaction between FVIII light chain and LRP cluster II (Homo sapiens, UniProt P00451)
T3 construct: Recombinant LRP clusters II or IV (1 pmol/well) were adsorbed onto microtiter wells; made in house; host or cells: LRP cluster II: BHK cells; FVIII light chain: plasma-derived
T3 sequence (P00451 1668-2351): T2 sequence (P00451 1668-2351 limits assumed)

B1: scFv KM33: scFv antibody fragment against FVIII light chain; does not require A3 domain region 1778-1818; LRP blocking (protein)
scFv: EVQLVESGGGVVQPGRSLRLSCVDSGLTFSSYGMHWVRQAPGAGLEWVAVISYDGNDKYYADSVKGRFAISRDNAKNTLYLQMNSLTIEDTAVYYCAKDLIESNIAEAFWGQGTLVTVSSGGGGSGGGGSGGGGSDIQMTQSPSSLSASVGDTVTIACRASRDIRNDLAWYQQKPGKAPKLLIYATSRLQSGVPSRFSGSGSFTDFTLTINSLQPDDSATYYCLQDSDYPLTFGGGTKVDIKRAAAEQKLISEEDLNGAAHHHHHH

Assays:
[1] = molecular target: T1, interaction between FVIII light chain and LRP cluster II; assay: Solid-phase competition: FVIII light chain binding to immobilized LRP cluster II; conditions: FVIII light chain 25 nM; peptide 0-1 mM; 2 h at 37° C
Protocol: (§1) FIG. 4. Effect of scFv antibody fragments on the interaction between FVIII light chain and LRP. A, FVIII light chain (LCh) (25 nM) was incubated with immobilized LRP cluster II (1 pmol/well) in a volume of 50 μl in 150 mM NaCl, 5 mM CaCl2, 1% (w/v) HSA, 0.1% Tween® 20, and 50 mM Tris (pH 7.4) in the presence of various concentrations (0-100 nM) of scFv KM41 (closed circles) or scFv KM36 (open circles) for 2 h at 37° C. After washing with the same buffer, bound FVIII light chain was quantified by incubation with peroxidase-conjugated anti-FVIII antibody CLB-CAg 12 for 15 min at 37° C. Residual binding is expressed as the percentage of binding in the absence of competitor and is corrected for nonspecific binding (less than 5% relative to binding to LRP cluster II-immobilized wells). Data represent the mean±S.D. of three experiments. B, FVIII light chain (50 nM) was incubated with immobilized LRP (16 fmol/mm^2) as described in the legend of FIG. 1. Binding was assessed in the absence (curve 1) or in the presence of increasing concentrations of scFv KM41 (20, 60, 300, 500 nM, curves 2-5, respectively). Complexes were allowed to form for 30 min before SPR analysis.
(§2) FIG. 5. Effect of scFv KM33 on the interaction between FVIII light chain and LRP. FVIII light chain (LCh) (25 nM) was incubated with immobilized LRP cluster II (1 pmol/well) in a volume of 50 μl in 150 mM NaCl, 5 mM CaCl2, 1% (w/v) HSA, 0.1% Tween® 20, and 50 mM Tris (pH 7.4) in the presence of various concentrations (0-30 nM) of scFv KM36 (open circles) or scFv KM33 (closed circles) for 2 h at 37° C. After washing with the same buffer, bound FVIII Light chain was quantified by incubation with peroxidase-conjugated anti-FVIII antibody CLB-CAg 12 for 15 min at 37° C. Residual binding is expressed as the percentage of binding in the absence of competitor and is corrected for nonspecific binding (less than 5% relative to binding to cluster-coated wells). Data represent the mean±S.D. of three experiments.
(§3) Recombinant LRP clusters II or IV (1 pmol/well) were adsorbed onto microtiter wells in 50 mM NaHCO3 (pH 9.8) in a volume of 50 μl for 16 h at 4° C. Wells were blocked with 2% (w/v) HSA, 150 mM NaCl, 5 mM CaCl2, and 50 mM Tris (pH 7.4) in a volume of 200 μl for 1 h at 37° C. After three rapid washes (less than 5 seconds each) with 150 mM NaCl, 5 mM CaCl2, 0.1% (v/v) Tween® 20, and 50 mM Tris (pH 7.4), FVIII light chain or its derivatives were incubated at various concentrations in a volume of 50 μl in a buffer containing 150 mM NaCl, 5 mM CaCl2, 1% (w/v) HSA, 0.1% (v/v) Tween® 20, and 50 mM Tris (pH 7.4) for 2 h. at 37° C. Bound ligand was detected by incubating with peroxidase-conjugated monoclonal antibody CLB-CAg 12 in the same buffer for 15 min at 37° C. […] In competition experiments, FVIII light chain (25 nM) was incubated with wells containing immobilized LRP clusters, either in the presence or absence of serial dilutions of competitor in a volume of 50 μl for 2 h at 37° C. Residual FVIII binding was detected as described above. Data were corrected for binding to empty microtiter wells, which was less than 5% relative to binding to wells containing immobilized LRP clusters.
(§4) (Note to Table II: Effect of FVIII a3-A3-C1 fragment derived synthetic peptides on the interaction between FVIII light chain and LRP cluster II. FVIII light chain (25 nM) was incubated with immobilized LRP cluster II (1 pmol/well) in a volume of 50 μl in 150 mM NaCl, 5 mM CaCl2, 1% (w/v) HSA, 0.1% Tween® 20, and 50 mM Tris (pH 7.4) in the presence or absence of various concentrations of synthetic peptide (0-1 mM) for 2 h at 37° C. After washing with the same buffer, bound FVIII light chain was quantified by incubation with peroxidase-conjugated anti-FVIII antibody CLB-CAg 12 for 15 min at 37° C. Half-maximum inhibition constants (IC50) represent the mean values±S.D. of three experiments.)

FVIIIa-FIXa complex = FVIIIa-FIXa complex (Homo sapiens, UniProt P00451+P00740); conditions: by interfering with the assembly of the FVIIIa-FIXa complex; cited from earlier work
FVIIIa-FIXa complex, sequence (P00740 47-191 limits assumed, one chain of several): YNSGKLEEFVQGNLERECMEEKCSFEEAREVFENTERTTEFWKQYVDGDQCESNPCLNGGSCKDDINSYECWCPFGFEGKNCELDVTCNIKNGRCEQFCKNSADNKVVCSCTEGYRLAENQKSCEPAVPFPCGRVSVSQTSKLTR

[2] = molecular target: T2, interaction between FVIII light chain and LRP cluster IV; assay: Solid-phase competition: FVIII light chain binding to immobilized LRP cluster IV; conditions: FVIII light chain 25 nM; competitor 0-600 nM
Protocol: FIG. 2. Binding of FVIII light chain to recombinant LRP fragments. FVIII light chain (LCh) (25 nM) was incubated with immobilized LRP cluster IV (1 pmol/well) in a volume of 50 μl in 150 mM NaCl, 5 mM CaCl2, 1% (w/v) HSA, 0.1% Tween® 20, and 50 mM Tris (pH 7.4) in the presence or absence of various concentrations of recombinant LRP cluster II (0-600 nM) for 2 h at 37° C. After washing with the same buffer, bound FVIII light chain was quantified by incubation with peroxidase-conjugated anti-FVIII antibody CLB-CAg 12 for 15 min at 37° C. Residual binding is expressed as the percentage of binding in the absence of competitor and is corrected for nonspecific binding (less than 5% relative to binding to LRP cluster II-immobilized wells). Inset, serial dilutions of FVIII light chain were incubated with immobilized LRP cluster II (1 pmol/well) in a volume of 50 μl in 150 mM NaCl, 5 mM CaCl2, 1% (w/v) HSA, 0.1% Tween® 20, and 50 mM Tris (pH 7.4) for 2 h at 37° C. After washing with the same buffer, bound FVIII light chain was quantfied as described above. […]
Recombinant LRP clusters II or IV (1 pmol/well) were adsorbed onto microtiter wells in 50 mM NaHCO3 (pH 9.8) in a volume of 50 μl for 16 h at 4° C. […] Bound ligand was detected by incubating with peroxidase-conjugated monoclonal antibody CLB-CAg 12 in the same buffer for 15 min at 37° C. […] Residual FVIII binding was detected as described above. […]

[3] = Factor VIII clearance and recovery in vWF knock out mice; type: in vivo; conditions: for Factor VIII activity in plasma: Factor VIII 200 U/kg
Protocol: FIG. 8. According to Example II, mice were injected either with human FVIII alone, human FVIII in the presence of a control scFv-fragment (KM38) and with human FVIII in the presence of a scFv-fragment (KM33) specifically interfering with the putative FVIII-LRP interaction.
Experimental procedure: vWF knock out mice (decreased endogenous Factor VIII, 20% Factor VIII compared to healthy animals) were treated with human recombinant Factor VIII (Recombinate™; 200 U/kg) and recombinant scFv (KM33) in excess. (30 nM versus 3 nM Factor VIII in plasma). In control experiments, Factor VIII and a control scFv fragment (KM38) binding to a different domain as the proposed LRP binding
site on the Factor VIII molecule were used in the same concentrations. Infusion of recombinant FVIII without any addition was used to monitor the clearance of Factor VIII in this model system.
At defined time points (15, 30, 60, 120 and 240 minutes) after injection, blood was collected by heart puncture, plasma was subsequently isolated, shock frozen and analyzed for Factor VIII activity. Ten mice were used at each time point, plasma was diluted to 3 concentrations (1:20, 1:60 and 1:100) and analyzed in duplicate. Factor VIII levels were quantified by performing a quantitative ELISA.

[4] = molecular target: T3, interaction between FVIII light chain and LRP cluster II; assay: Solid-phase competition: FVIII light chain binding to immobilized LRP cluster II; conditions: FVIII light chain 25 nM
Protocol: as §1, §2, §3, §4

Molecule | IC50 [1] | Inhibition of FVIII procoagulant activity (FVIIIa-FIXa complex) | other results
EDPTFKENYRFH [Residues 1908-1919] | > 1000 µM |  | 
HMAPTKDEFDCKA [Residues 1822-1834] | > 1000 µM |  | 
KLARLHYSG [Residues 2049-2057] | > 1000 µM |  | 
KNFVKPNETKTYFWK [Residues 1804-1818] | ~1.9 µM and 1.9 µM | effective inhibitors | 
LRP cluster II: recombinant LRP ligand binding cluster II expressed in BHK cells |  |  | Inhibition of FVIII light chain binding to immobilized LRP cluster IV [2]: dose-dependent inhibition
TENMERNCRA [Residues 1892-1901] | > 1000 µM |  | 
TVRKKEEYK [Residues 1964-1972] | > 1000 µM |  | 
WDYGMSSSPHVLRNR [Residues 1707-1721] | > 1000 µM |  | 
YFWKVQHHMAPTKDEFDCKA [Residues 1815-1834] | ~16.8 µM and 16.8 µM | effective inhibitors | 
B1 |  | effective inhibitors | Factor VIII recovery ([3]; 15 minutes after injection): 30.4%; Factor VIII activity in plasma ([3]; 15 minutes after injection): about 0.8 U/mL; Factor VIII recovery ([3]; 30 minutes after injection): 20%; Factor VIII activity in plasma ([3]; 30 minutes after injection): 0.5 U/mL; Factor VIII recovery ([3]; 60 minutes after injection): 14%; Factor VIII activity in plasma ([3]; 60 minutes after injection): 0.35 U/mL; FVIII activity levels ([3]; four hours after injection): reached the background activity of mouse Factor VIII; Effect on binding of FVIII light chain to immobilized LRP cluster II [4]: effectively inhibited
